# Values of other authors as cited in patent US20070166380A1, “ZOLPIDEM TABLETS” (priority 2005, published 2007).
# Settings: after ingestion of the tablet
compound,measurement,setting,value
"Cc1ccc(-c2nc3ccc(C)cn3c2CC(=O)N(C)C)cc1 [zolpidem, N,N,6-trimethyl-2-(4-methylphenyl)-imidazo [1,2-s]pyridine-3-acetamide]",time until zolpidem starts acting,'or less',15 to 30 min
same,duration of action,approximately,4 to 6 h
